According to ChEMBL document CHEMBL1201862, “PubChem BioAssay data set” (2004):
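Each compound was tested at five concentrations against cells in 96-well plates for 48 hours. Abbreviation: GI50, concentration required for 50% inhibition of growth.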 Activity calls are given as the source filed them. No stated cut-off is given here; in the data, active = GI50 up to about 1.1 µM and inactive = higher.

What was measured:
Assay in all cases: growth of human tumour cells (NCI), 48 h
K562 = system: K562
RXF 393 = system: RXF 393
EKVX = system: EKVX
NCI-H226 = system: NCI-H226
SK-MEL-2 = system: SK-MEL-2
HOP-92 = system: HOP-92
HOP-62 = system: HOP-62
HT-29 = system: HT-29
HL-60 = system: HL-60
SW-620 = system: SW-620
U-251 = system: U-251
NCI-H460 = system: NCI-H460
UACC-257 = system: UACC-257
A498 = system: A498
SN12C = system: SN12C
TK-10 = system: TK-10
SF-539 = system: SF-539
UACC-62 = system: UACC-62
ACHN = system: ACHN
KM12 = system: KM12

Row | Compound | GI50 (K562) | GI50 (RXF 393) | GI50 (EKVX) | GI50 (NCI-H226) | GI50 (SK-MEL-2) | GI50 (HOP-92) | GI50 (HOP-62) | GI50 (HT-29) | GI50 (HL-60) | GI50 (SW-620) | GI50 (U-251) | GI50 (NCI-H460) | GI50 (UACC-257) | GI50 (A498) | GI50 (SN12C) | GI50 (TK-10) | GI50 (SF-539) | GI50 (UACC-62) | GI50 (ACHN) | GI50 (KM12)
1 | O=C(N[C@H]1c2ccsc2/C(=N/O)[C@H]1O)C(F)(F)F | > 100 µM (inactive) | > 100 µM (inactive) | > 100 µM (inactive) | > 100 µM (inactive) | > 100 µM (inactive) | > 100 µM (inactive) | > 100 µM (inactive) | > 100 µM (inactive) | > 100 µM (inactive) | > 100 µM (inactive) | > 100 µM (inactive) | > 100 µM (inactive) | > 100 µM (inactive) | > 100 µM (inactive) | > 100 µM (inactive) | > 100 µM (inactive) | > 100 µM (inactive) | > 100 µM (inactive) |  | 
2 | CCCCn1cc[n+](-c2nc3ccccc3n2C)c1 | > 100 µM (inactive) | > 100 µM (inactive) | > 100 µM (inactive) | > 100 µM (inactive) | > 100 µM (inactive) |  | > 100 µM (inactive) | > 100 µM (inactive) | > 100 µM (inactive) | > 100 µM (inactive) | > 100 µM (inactive) | > 100 µM (inactive) | > 100 µM (inactive) |  | > 100 µM (inactive) | > 100 µM (inactive) | > 100 µM (inactive) | > 100 µM (inactive) | > 100 µM (inactive) | 
3 | c1ccc(Nc2nnc(-c3nsc4ccccc34)o2)cc1 | 59.6 µM (inactive) | 51.5 µM (inactive) | 51.3 µM (inactive) |  | > 100 µM (inactive) | 19.2 µM (inactive) | 32.9 µM (inactive) | > 100 µM (inactive) | > 100 µM (inactive) | > 100 µM (inactive) | 31.4 µM (inactive) | 62.1 µM (inactive) | > 100 µM (inactive) |  | 71.1 µM (inactive) | > 100 µM (inactive) | > 100 µM (inactive) | > 100 µM (inactive) | 75.3 µM (inactive) | > 100 µM (inactive)
4 | C=CC1(c2ccc3ccccc3c2)OCC(CC)O1 (stereo not drawn) | 13.9 µM (inactive) | 53.8 µM (inactive) | 25.1 µM (inactive) | 25.5 µM (inactive) | 15.6 µM (inactive) | 36.7 µM (inactive) | 1.21 µM (inactive) | 29.6 µM (inactive) | 4.37 µM (inactive) | 46.2 µM (inactive) | 57 µM (inactive) | 48.2 µM (inactive) | 60.4 µM (inactive) |  | 36.7 µM (inactive) | > 100 µM (inactive) |  | 13.6 µM (inactive) | 66.1 µM (inactive) | 44.1 µM (inactive)
5 | CC(C)(CCCCC(C)(C)C1NC(=O)N1)C1NC(=O)N1 | > 10 µM (inactive) | > 10 µM (inactive) | > 10 µM (inactive) | > 10 µM (inactive) | > 10 µM (inactive) |  | > 10 µM (inactive) | > 10 µM (inactive) | > 10 µM (inactive) | > 10 µM (inactive) | > 10 µM (inactive) | > 10 µM (inactive) |  | > 10 µM (inactive) | > 10 µM (inactive) | > 10 µM (inactive) | > 10 µM (inactive) | > 10 µM (inactive) | > 10 µM (inactive) | > 10 µM (inactive)
6 | C1=C2C3=[N+](CCCCC3)CC2Cc2ccsc21 (stereo not drawn) | > 100 µM (inactive) | > 100 µM (inactive) | 53.5 µM (inactive) | > 100 µM (inactive) | > 100 µM (inactive) | 76.7 µM (inactive) | > 100 µM (inactive) | 32.8 µM (inactive) | 66.1 µM (inactive) | 93.5 µM (inactive) | 17.2 µM (inactive) | 29.9 µM (inactive) | 23.3 µM (inactive) | 39.8 µM (inactive) | 67.9 µM (inactive) | 59.8 µM (inactive) |  | > 100 µM (inactive) | > 100 µM (inactive) | 30.4 µM (inactive)
7 | COc1cc2c(cc1OC)C1Cc3cc(OC)c(OC)cc3C(C2)O1 | 46.7 µM (inactive) | > 100 µM (inactive) | > 100 µM (inactive) | > 100 µM (inactive) | > 100 µM (inactive) | > 100 µM (inactive) | > 100 µM (inactive) | > 100 µM (inactive) |  | > 100 µM (inactive) | > 100 µM (inactive) | > 100 µM (inactive) | > 100 µM (inactive) |  | > 100 µM (inactive) | > 100 µM (inactive) | > 100 µM (inactive) | > 100 µM (inactive) | > 100 µM (inactive) | > 100 µM (inactive)
8 | COc1ccc(/C=C2/C(=O)N(C(=O)c3ccccc3O)N=C2C)cc1 | 0.0492 µM (active) | < 0.0446 µM (active) | 0.608 µM (active) | 1.35 µM (inactive) | 0.327 µM (active) | 0.0441 µM (active) | 0.356 µM (active) | 4.57 µM (inactive) | 0.292 µM (active) | 1.44 µM (inactive) | 0.0692 µM (active) | 0.262 µM (active) | 0.442 µM (active) | 0.0202 µM (active) | 0.65 µM (active) | 6.04 µM (inactive) | 0.109 µM (active) | 0.0968 µM (active) | 0.0418 µM (active) | 
9 | COc1ccc(C(O)/C(=N\NC(N)=S)c2nc3ccc([N+](=O)[O-])cc3nc2O)cc1OC (stereo not drawn) | > 100 µM (inactive) | > 100 µM (inactive) | > 100 µM (inactive) | > 100 µM (inactive) | > 100 µM (inactive) | > 100 µM (inactive) | > 100 µM (inactive) | > 100 µM (inactive) | > 100 µM (inactive) | > 100 µM (inactive) | > 100 µM (inactive) | > 100 µM (inactive) | 64.3 µM (inactive) | > 100 µM (inactive) |  | > 100 µM (inactive) |  | > 100 µM (inactive) | > 100 µM (inactive) | > 100 µM (inactive)
10 | ClCCCN1CCCCC1CCl (stereo not drawn) | > 100 µM (inactive) | > 100 µM (inactive) |  |  | > 100 µM (inactive) | > 100 µM (inactive) | 90.8 µM (inactive) | > 100 µM (inactive) | 52.7 µM (inactive) | > 100 µM (inactive) | > 100 µM (inactive) | 10.2 µM (inactive) |  | > 100 µM (inactive) | > 100 µM (inactive) | > 100 µM (inactive) | > 100 µM (inactive) | 43.7 µM (inactive) | 48.6 µM (inactive) | > 100 µM (inactive)
11 | Cc1cc(C)c(NC(=O)/C=C/c2ccccc2)c(C)c1 | 32.6 µM (inactive) | > 100 µM (inactive) | > 100 µM (inactive) | > 100 µM (inactive) | > 100 µM (inactive) | 56.6 µM (inactive) | 38.9 µM (inactive) | > 100 µM (inactive) | 36.1 µM (inactive) | > 100 µM (inactive) | > 100 µM (inactive) | > 100 µM (inactive) | > 100 µM (inactive) |  |  | > 100 µM (inactive) | 59 µM (inactive) | 22.9 µM (inactive) | 80.2 µM (inactive) | > 100 µM (inactive)
